The text below walks through data of paper PMC6435586 (Frontiers in Pharmacology, 2019).

This data set can be described thus: Serum stability assay. In kind it is in vitro ADME, human. The note with it: peptide 6.6 μM. The procedure:
The serum stability of the peptides was tested using human male serum (Sigma, USA), as previously described ([Chan et al., 2011]). All peptides were tested at a final concentration of 6.6 μM after dilution from a stock solution at 200 μM. The serum was centrifuged at 17,000g for 10 min to remove the lipid component, and the supernatant incubated at 37°C for 15 min, prior to conducting the assay. The peptides were incubated in serum or phosphate-buffered saline (PBS) at 37°C, and aliquots were taken at 0, 3, 8, and 24 h (40-μl aliquots were taken in triplicate). The aliquots of serum were quenched with 40 μl of 6 M urea and incubated for 10 min at 4°C. The aliquots were then quenched with 40 μl of 20% trichloroacetic acid (TCA) and incubated for another 10 min at 4°C to precipitate serum proteins. Finally, samples were centrifuged at 17,000g for 10 min, and 90 μl of the supernatant was analyzed on reversed-phase HPLC using a Phenomenex Jupiter Proteo C12 analytical column (150 mm × 2.00 mm, 4 μm, 90 Å, Phenomenex, Torrance, CA, USA) and a linear gradient of solvent B [90% acetonitrile/10% H2O, 0.045% trifluoroacetic acid (TFA)] at a flow rate of 0.4 ml/min using an Agilent 1260 Infinity system (Agilent Technologies, Hanover, Germany). The control samples contained equivalent amounts of the peptides in PBS and were subjected to the same treatment procedure. The stability at each time point was calculated based on the area of the RP-HPLC peaks following incubation with serum at 214 nm as a percentage of the area of 0-h serum-treated peptides ([Chan et al., 2013]).

Where no end group is shown, it is not given here.

Usually share remaining stands for what is left of the initial amount, in per cent.

In the case of MAMPAFTTDH-NH2 [CTX-1], the “detection of peptide in human serum over time” value (human male serum, 37°C, 24 h, RP-HPLC at 214 nm) was “could be detected up to 24 h”. The fraction remaining at 8 h, 6.6 μM (lipid component removed by centrifugation, human male serum (lipid removed by centrifugation, pre-incubated 15 min at 37°C), 8 h, RP-HPLC C12 peak area at 214 nm as % of 0-h serum-treated peptide, triplicate, mean, read-out: peptide remaining at the 8-h time point in human serum) is more than 18%. For QMARKADDAAG-NH2 [CTX-2], the “relative stability in human serum among the fragments (in words)” value (human male serum, 37°C, 0-24 h, RP-HPLC at 214 nm) was “most stable of the peptides tested”. Take YGPQALAR-NH2 [CTX-4]: the fraction remaining at 3 h, 6.6 μM (lipid component removed by centrifugation, human male serum (lipid removed by centrifugation, pre-incubated 15 min at 37°C), 3 h, RP-HPLC C12 peak area at 214 nm as % of 0-h serum-treated peptide, triplicate, mean, read-out: peptide remaining after 3 h in human serum) was less than 10%.
